In experiment [1] the test system is conscious rats with partial urethral obstruction. The experiment can be described thus: Cystometry in conscious rats with partial urethral obstruction (PUO). The following applies: 3 mg/kg IP daily for 2 weeks. Type of experiment: in vivo, rat. From the text:
The effect of chronic treatment with the compound of Formula I on bladder function was studied by cystometry in conscious rats with partial urethral obstruction (“PUO”) after 2 weeks of treatment with the compound of Formula I. Protocols for animals and bladder catheter implantation were as in Example 4 above.
The bladder and urethra was exposed via a mid-line incision of the lower abdom. A 19 gauge needle (0.9 mm OD) was placed on the surface of the urethra, and a 3-0 black mono nylon suture was firmly tied over the urethra and the ligation was left in place for the duration of the study. The needle was then removed and the diameter and position of the ligature was then inspected to ensure that a partial urethral obstruction was obtained. The abdominal cavity was then closed in layers with single cross-sutures (5-0 black polyfilament nylon suture). Animals were then housed in individual cages for two weeks before cystometry were performed.
The appropriate solution of the compound of Formula I was prepared on the day of the experiment using PBS as the vehicle. A stock solution of 10 mg/ml in PBS was used and the animals were administered daily, weight-controlled doses of 3 mg/kg compound of Formula I or vehicle by intraperitoneal (“IP”) injection over the 2 week treatment period, starting on the day of PUO surgery.
Cystometry was performed without anesthesia three days after the implantation of bladder catheters in rats with PUO, and after two weeks of daily treatment with the compound of Formula I. The conscious rats were placed in metabolic cages without restraint and the bladder catheters were connected via a T-tube to a pressure transducer (P23 DC; Statham Instruments Inc., Oxnard, Calif.) and a microinjection pump (CMA 100; Carnegie Medicine AB, Solna, Sweden). Micturition volumes were recorded with a fluid collector connected to a force displacement transducer (FT 03 D, Grass Instrument Co., Quincy, Mass.). Room-temperature saline was infused into the bladder continuously at a rate of 10 ml/h. Bladder size increases several-fold in rats subjected to PUO. Therefore, an infusion rate of 20 ml/h was used during cystometry in these animals. Pressures and micturition volumes were recorded continuously with Acq Knowledge 3.8.1 software and a MP100 data acquisition system (Biopac Syst. Inc. Santa Barbara, Calif.) connected to a Grass polygraph (Model 7E, Grass Instrument Co). At the beginning of cystometry, the bladder was emptied via the bladder catheter.
The following urodynamic parameters were investigated: micturition pressure (“MP;” maximum bladder pressure during micturition), threshold pressure (“ThP”; bladder pressure at start of detrusor contraction), flow pressure (“FP”; bladder pressure when urethra opens), MI (time between two micturitions), micturition volume (“MV”; volume of the expelled urine), and RV (volume left in bladder after a micturition). At least a 30-minute period with stable and reproducible micturitions was recorded before drug administration and used as baseline value, to be compared with a corresponding stable 30-minute period after drug administration. For multiple comparisons, a one-way analysis of variance for repeated measures (Holm-Sidak) was used. Pairwise and non-pairwise comparisons were made by Student's t-test. All statistical calculations are based on the number of individual animals, and significant differences are accepted when p<0.05.
As used herein, the term “chronic” means that the animals were dosed once/day for 14 days, prior to taking the cystometry measurements. For specific investigation and analysis of NVCs, the PUO should beneficially be removed approximately 2-3 days prior to the urodynamic investigation. […]

Experiment [2] relates to isolated detrusor from rats with partial urethral obstruction. The experiment is described as follows: Carbachol-induced contractions in bladder strips from PUO rats. The note with it: strips from PUO rats treated for 2 weeks. Type of experiment: ex vivo, rat. The protocol: The effect of chronic treatment with the compound of Formula I was studied in contractility studies with isolated bladder strips from rats with PUO after 2 weeks of treatment with the compound of Formula I.
Bladder strips (2×2×6 mm) were dissected from PUO rat bladders. Silk ligatures were applied at both ends of the preparations which then were mounted on metal prongs in 5 ml aerated (95% O2 and 5% CO2) tissue baths (37° C.) containing Krebs solution. Mechanical activity was registered with Grass FT 03C force transducers connected to a Grass Polygraph model 7E. The preparations were stretched to a tension of approximately 10 mN and left to equilibrate for 45 minutes to attain a stable resting tonus. To establish the viability of the preparations and to determine a standard contractile level, preparations were exposed to a 60 mM K^+ Krebs solution. The effects of cumulative addition of carbachol, a non-selective muscarininc agonist (1 nM-0.1 mM), were studied in strip preparations from vehicle-treated and compound of Formula I-treated rats with PUO.
Transmural activation of nerves was performed with two platinum electrodes, placed in parallel to the sides of the strips in the organ baths. […] All contractile responses were expressed as a percentage of the contraction elicited by 60 mM K^+ Krebs solution. […]

Take `CCCCCCC(C)(C)c1cc(O)c([C@H]2CC(=O)[C@H]3C[C@@H]2C3(C)C)c(OC(=O)/C=C/C(=O)O)c1` [Formula I]: the “Incidence of NVC” value in experiment [1] (PUO rats) was determined as 20%. In addition, the Mean bladder weight in experiment [1] (PUO rats, n=10, not significant) was determined as 0.88 ± 0.13 g. Also, the “Micturition pressure (MP)” value in experiment [1] (PUO rats, ns) was 116.0±17.4 cmH2O. For the same compound, in experiment [1] (PUO rats, p<0.002), the “Mean flow pressure (FP)” value is 87.4±8.7 cmH2O and the “Mean threshold pressure (ThP)” value turned out to be 39.4±4.9 cmH2O. For the same compound, in experiment [1] (PUO rats, p<0.01), the “Micturition interval (MI)” value came to 84 ± 10 s. Further, in experiment [1] (PUO rats, p<0.02), the “Micturition volume (MV)” value was 0.43 ± 0.07 mL and the “Residual volume (RV)” value was determined as 0.09 ± 0.05 mL. This compound gave a Micturition frequency in experiment [1] (PUO rats, p<0.03) of 53±11 micturitions per hour. Besides, in experiment [1] (p<0.04), the “PUO rats exhibiting non-voiding contractions (NVCs)” value is 2 out of 10. For the same compound, the “Carbachol-induced detrusor contractions vs vehicle-treated PUO rats” value in experiment [2] (carbachol 1 nM to 1 μM) was “no differences”. The “Maximal response to carbachol vs vehicle-treated PUO rats” value in experiment [2] (simultaneous curve fitting, p<0.0008) is “significant increase”.

The values are drawn from US20090312414A1, “Treatment Of Lower Urinary Tract Dysfunction With CB2-Receptor-Selective Agonists” (priority 2008, published 2009).
